In PubChem BioAssay AID1845202 (Molecular Pharmacology Branch, DTP, NCI, 2023) one finds viability, T/C and IC50 data, which are given here for two molecules.

Values joined by “and” are separate entries in the source; they are usually repeats but may differ in a detail not shown here. Identical values can stand only once.

The test relates to DMS 114 tumor spheroids, viability % test/control. As to the kind of experiment: Anticancer human tumor DMS 114 cell line growth inhibition.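 On all read-outs here: spheroids exposed to compounds for 7 days before read-out.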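 On viability, T/C: luminescence used as a proxy for viable cells.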 The settings on record: spheroids with HUVEC and MSC; for viability, T/C: stronger effect = lower value. From the text:
Multicellular complex tumor spheroid response to DNA repair inhibitors in combination with DNA-damaging drugs
This study explores the anticancer activities of DNA-damaging drugs and inhibitors of DNA damage repair, both as single agents and in combinations. Complex tumor spheroids comprised of malignant cells, endothelial cells and mesenchymal stem cells served as an in vitro model for human solid tumors. This model system incorporates physiologically relevant features and patient-derived or established malignant cell lines with clinically relevant genetic alterations from many tumor types. Twenty-six patient-derived or established malignant cell lines were evaluated representing sarcoma, melanoma, small cell lung cancer (SCLC), non-small cell lung cancer (NSCLC), as well as bladder, ovarian and pancreatic cancers. The concentration ranges selected for each drug and investigational agent were based upon clinically achievable concentrations if the clinical Cmax of the agent was known.
Compounds. The drugs and compounds olaparib (NSC753686), talazoparib (NSC767125), berzosertib (NSC777718), elimusertib (NSC800525), nedisertib (NSC802822), VX-984 (NSC792969), AZD-1390 (NSC803789), temozolomide (NSC362856), topotecan (NSC609699), trabectedin (NSC813783), staurosporine (NSC755774), and gemcitabine (NSC613327) were obtained from the National Cancer Institute (NCI) Developmental Therapeutics Program Chemical Repository. The FDA-approved anticancer drug set is available from the Developmental Therapeutics Program at https://dtp.cancer.gov/organization/dscb/obtaining/available_plates.htm. […] The stock solutions were prepared in dimethyl sulfoxide (DMSO, Sigma-Aldrich, St. Louis, MO, cat. D2650) at 400-fold the tested concentration and stored at -70 degrees C. Prior to their use, the stock solutions were diluted in fresh medium and the final DMSO concentration in the assay was 0.25% (v/v). All drugs and investigational agents were tested over a range starting from a high concentration at or near the clinical Cmax and decreasing in half-log increments. If the clinical Cmax for an agent had not been determined, the highest concentration tested was 10 microM.
Cell Lines. The patient-derived cancer cell (PDC) lines: 156681-154-R-J1-PDC, 283228-195-R-J1-PDC, 287954-098-R-J1-PDC, 292921-168-R-J2-PDC, 349418-098-R-PDC, 425362-245-T-J1-PDC, 556581-035-R-J1-PDC, and BL0293-F563-PDC were received from the NCI Patient-Derived Models Repository (PDMR, https://pdmr.cancer.gov). The established cell lines HS-SY-2 (RRID:CVCL_8719), MPNST, and SYO-1 (RRID:CVCL_7146) were obtained from the Sloan Kettering Institute. The alveolar soft parts sarcoma cell line ASPS-1 (RRID:CVCL_S738) was established at the NCI and grown from internal seed stocks. The following established cell lines were purchased from the American Type Culture Collection (ATCC, Manassas, VA): G-401 (ATCC, cat. CRL-1441, RRID:CVCL_0270), SW982 (ATCC, cat. HTB-93, RRID:CVCL_1734), VA-ES-BJ (ATCC, cat. CRL-2138, RRID:CVCL_1785), NCI-H719 (ATCC, cat. CRL-5837, RRID:CVCL_1582), NCI-H196 (ATCC, cat. CRL-5823, RRID:CVCL_1509), NCI-H841 (ATCC, cat. CRL-5845, RRID:CVCL_1595), NCI-H1618 (ATCC, cat. CRL-5879, RRID:CVCL_1480), NCI-H1876 (ATCC, cat. CRL-5902, RRID:CVCL_1503), DMS 114 (ATCC, cat. CRL-2066; RRID:CVCL_1174), NCI-H211 (ATCC, cat. CRL-5824; RRID:CVCL_1529), and SW 1271 (ATCC, cat. CRL-2177, RRID:CVCL_1716). The small cell lung cancer cell line COR-L88 was purchased from Sigma-Aldrich (cat. 92031917-1VL, RRID:CVCL_1141). The non-small cell lung cancer cell lines NCI-H226 (RRID:CVCL_1544) and NCI-H322M (RRID:CVCL_1557) were established at the NCI and grown from internal seed stocks. Pooled donor human umbilical vein endothelial cells (HUVEC, Lonza, cat. CC-2519) and human mesenchymal stem cells (hMSC, Lonza, cat. PT-2501) were purchased from Lonza (Walkersville, MD).
Cell Culture. All cells were maintained in an incubator at 37 degrees C and 5% CO2 with 95% humidity. […]

By viability, T/C is commonly meant the ratio of treated to control. A word on the IC50: it is the midpoint of a concentration-inhibition curve. For `CC1COCCN1c1cc(-c2ccnn2C)c2ccnc(-c3ccn[nH]3)c2n1` (configuration not stated), the viability, T/C is 53.3% and 52% and 78.1% (compound 0.0316 µM); 33.3% and 43.1% and 47.9% (compound 0.1 µM); 19% and 25.5% and 22.5% (compound 0.316 µM); 12% and 12.8% and 12.6% (compound 1 µM); 9.85% and 10.8% and 9.54% (compound 3.16 µM); 10.2% and 11.9% and 8.81% (compound 10 µM). The IC50 (curve of compound) is 38.2 nM and 40.7 nM and 92.2 nM.

Take `Cc1cc(C)c(CNC(=O)c2cc(-c3ccc(CN4CCOCC4)cc3)cc3c2cnn3C2CCCC2)c(=O)[nH]1` + Cn1nnc2c(C(N)=O)ncn2c1=O: the IC50 (curve of first compound, second compound 1 µM) is over 10000 nM; the IC50 (curve of first compound, second compound 3.16 µM) is over 10000 nM; the IC50 (curve of first compound, second compound 10 µM) is over 10000 nM; the IC50 (curve of first compound, second compound 31.6 µM) was over 10000 nM; the IC50 (curve of first compound, second compound 100 µM) was over 10000 nM. For the same molecule, the viability, T/C runs as follows: (second compound 1 µM, first compound 0.0316 µM) 100%; (second compound 1 µM, first compound 0.1 µM) 103%; (second compound 1 µM, first compound 0.316 µM) 104%; (second compound 1 µM, first compound 1 µM) 110%; (second compound 1 µM, first compound 3.16 µM) 110%; (second compound 1 µM, first compound 10 µM) 64.3%. The viability, T/C is, setting by setting: (second compound 3.16 µM, first compound 0.0316 µM) 110%; (second compound 3.16 µM, first compound 0.1 µM) 108%; (second compound 3.16 µM, first compound 0.316 µM) 108%; (second compound 3.16 µM, first compound 1 µM) 114%; (second compound 3.16 µM, first compound 3.16 µM) 120%; (second compound 3.16 µM, first compound 10 µM) 69.3%. In addition, the viability, T/C was 110% (second compound 10 µM, first compound 0.0316 µM); 106% (second compound 10 µM, first compound 0.1 µM); 111% (second compound 10 µM, first compound 0.316 µM); 115% (second compound 10 µM, first compound 1 µM); 120% (second compound 10 µM, first compound 3.16 µM); 65.9% (second compound 10 µM, first compound 10 µM). Moreover, the viability, T/C runs as follows: (second compound 31.6 µM, first compound 0.0316 µM) 113%; (second compound 31.6 µM, first compound 0.1 µM) 107%; (second compound 31.6 µM, first compound 0.316 µM) 109%; (second compound 31.6 µM, first compound 1 µM) 111%; (second compound 31.6 µM, first compound 3.16 µM) 103%; (second compound 31.6 µM, first compound 10 µM) 65.1%. The viability, T/C runs as follows: (second compound 100 µM, first compound 0.0316 µM) 103%; (second compound 100 µM, first compound 0.1 µM) 103%; (second compound 100 µM, first compound 0.316 µM) 98.8%; (second compound 100 µM, first compound 1 µM) 90.1%; (second compound 100 µM, first compound 3.16 µM) 80.4%; (second compound 100 µM, first compound 10 µM) 51.6%.
